Results: ChEMBL document CHEMBL1158908, “Diyne Enol Ethers of Glycerol from a New Zealand Sponge, Petrosia hebes” (1990)

System: P388
Test: Cytotoxicity against mouse P388 cells
Type: functional
Conditions: read-out: ID50 (the source's name)

Structure (SMILES) | IC50 [µg/mL]
CCCCCCCCCC(O)C#CC#C/C=C\OCC(O)CO (configuration not stated) | > 11
CC(C)CCCCCC(O)C#CC#C/C=C\OCC(O)CO (configuration not stated) | > 6
